From ChEMBL document CHEMBL4177572, “Recent advances in JAK3 inhibition: Isoform selectivity by covalent cysteine targeting” (Bioorg Med Chem Lett, 2017)

Columns and labels:
[1] = biological target: T1, Tyrosine-protein kinase JAK3 (Homo sapiens) (UniProt P52333); test: Binding affinity to JAK3 (unknown origin) assessed as dissociation half life
T1 sequence (whole entry): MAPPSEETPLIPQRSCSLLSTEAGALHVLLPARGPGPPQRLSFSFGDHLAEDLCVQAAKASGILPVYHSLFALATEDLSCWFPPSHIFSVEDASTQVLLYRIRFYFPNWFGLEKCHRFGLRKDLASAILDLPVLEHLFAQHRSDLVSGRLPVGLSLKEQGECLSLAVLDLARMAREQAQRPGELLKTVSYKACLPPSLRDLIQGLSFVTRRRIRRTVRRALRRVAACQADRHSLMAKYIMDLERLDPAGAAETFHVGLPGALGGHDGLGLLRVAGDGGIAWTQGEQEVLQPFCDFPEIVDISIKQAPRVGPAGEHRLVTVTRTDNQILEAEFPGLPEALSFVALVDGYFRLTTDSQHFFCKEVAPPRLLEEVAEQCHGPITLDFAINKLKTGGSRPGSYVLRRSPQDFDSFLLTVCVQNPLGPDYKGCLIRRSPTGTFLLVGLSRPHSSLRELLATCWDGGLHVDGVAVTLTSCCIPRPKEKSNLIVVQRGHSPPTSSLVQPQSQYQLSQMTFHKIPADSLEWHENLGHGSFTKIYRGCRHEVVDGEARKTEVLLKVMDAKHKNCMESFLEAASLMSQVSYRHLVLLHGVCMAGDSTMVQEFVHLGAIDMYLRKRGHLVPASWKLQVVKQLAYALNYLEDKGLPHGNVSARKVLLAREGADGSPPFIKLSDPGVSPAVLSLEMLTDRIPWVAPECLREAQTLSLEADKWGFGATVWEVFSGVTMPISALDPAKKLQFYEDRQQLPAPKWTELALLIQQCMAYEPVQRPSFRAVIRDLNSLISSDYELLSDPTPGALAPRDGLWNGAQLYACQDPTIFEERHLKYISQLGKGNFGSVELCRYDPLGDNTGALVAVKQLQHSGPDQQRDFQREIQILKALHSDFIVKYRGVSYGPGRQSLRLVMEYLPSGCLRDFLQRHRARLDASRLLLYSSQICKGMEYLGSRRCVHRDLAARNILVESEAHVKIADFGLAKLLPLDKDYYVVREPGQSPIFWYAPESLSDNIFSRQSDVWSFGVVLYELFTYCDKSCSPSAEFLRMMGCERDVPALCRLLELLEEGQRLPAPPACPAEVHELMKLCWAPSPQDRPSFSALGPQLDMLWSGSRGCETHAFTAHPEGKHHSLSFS

[2] = biological target: Tyrosine-protein kinase JAK1/JAK3 (Mus musculus, UniProt P52332+Q62137); test: Inhibition of JAK3/JAK1 in mouse CTLL-2 cells assessed as reduction in IL2-stimulated STAT5 phosphorylation; assay type: cell-based
JAK3/JAK1 [3] = biological target: T2, JAK3/JAK1 (Homo sapiens, UniProt P23458+P52333); test: Inhibition of JAK1/JAK3 in human whole blood CD3+/CD4+ T cells assessed as reduction in IL7-stimulated STAT5 phosphorylation
T2 sequence (P23458 whole entry, one chain of several): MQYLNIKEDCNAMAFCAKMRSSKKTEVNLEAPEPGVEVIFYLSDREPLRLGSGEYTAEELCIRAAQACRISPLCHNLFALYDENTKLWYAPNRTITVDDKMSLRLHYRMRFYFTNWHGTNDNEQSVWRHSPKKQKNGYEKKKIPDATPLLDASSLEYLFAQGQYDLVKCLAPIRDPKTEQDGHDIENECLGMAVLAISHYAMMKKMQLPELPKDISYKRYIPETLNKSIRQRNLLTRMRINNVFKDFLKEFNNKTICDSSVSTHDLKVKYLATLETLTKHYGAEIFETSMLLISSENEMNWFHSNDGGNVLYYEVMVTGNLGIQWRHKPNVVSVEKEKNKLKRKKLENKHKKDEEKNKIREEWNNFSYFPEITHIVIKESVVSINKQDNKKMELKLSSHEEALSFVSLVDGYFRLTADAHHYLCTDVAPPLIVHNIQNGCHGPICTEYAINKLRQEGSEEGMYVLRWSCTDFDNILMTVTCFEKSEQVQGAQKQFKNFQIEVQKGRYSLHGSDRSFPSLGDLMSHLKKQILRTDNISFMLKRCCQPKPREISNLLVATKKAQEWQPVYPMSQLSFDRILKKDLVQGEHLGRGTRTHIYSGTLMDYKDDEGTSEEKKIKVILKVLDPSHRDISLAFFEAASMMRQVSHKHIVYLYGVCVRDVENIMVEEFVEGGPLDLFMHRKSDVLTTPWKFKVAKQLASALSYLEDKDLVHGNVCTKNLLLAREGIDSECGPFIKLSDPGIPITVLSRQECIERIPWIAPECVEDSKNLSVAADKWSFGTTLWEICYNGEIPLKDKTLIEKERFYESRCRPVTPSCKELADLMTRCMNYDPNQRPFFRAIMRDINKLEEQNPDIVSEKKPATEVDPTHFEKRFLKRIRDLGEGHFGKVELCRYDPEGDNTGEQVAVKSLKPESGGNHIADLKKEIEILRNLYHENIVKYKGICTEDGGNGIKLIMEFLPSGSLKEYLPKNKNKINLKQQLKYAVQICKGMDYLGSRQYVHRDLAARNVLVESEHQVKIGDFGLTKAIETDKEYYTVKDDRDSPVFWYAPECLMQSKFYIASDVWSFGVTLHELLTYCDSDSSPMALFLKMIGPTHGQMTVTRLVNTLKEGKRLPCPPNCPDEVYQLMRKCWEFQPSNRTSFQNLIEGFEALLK

JAK3/JAK1 [4] = biological target: T2, JAK3/JAK1; test: Inhibition of JAK1/JAK3 in human PBMC CD3+/CD8+ T cells assessed as reduction in IL7-stimulated STAT5 phosphorylation
[5] = Half life in rat; assay type: ADME, organism-based; conditions: in vivo
Homo sapiens [6] = species on record: Homo sapiens; test: Selectivity ratio of IC50 for TYK2 (unknown origin) to IC50 for JAK3 (unknown origin)
Homo sapiens [7] = species on record: Homo sapiens; test: Selectivity ratio of IC50 for JAK1 (unknown origin) to IC50 for JAK3 (unknown origin)
Homo sapiens [8] = species on record: Homo sapiens; test: Selectivity ratio of IC50 for JAK2 (unknown origin) to IC50 for JAK3 (unknown origin)
[9] = biological target: Tyrosine-protein kinase JAK2 (Homo sapiens, UniProt O60674); test: Time-dependent inhibition of recombinant human N-terminal His-tagged JAK2 (826 to 1132 residues) expressed in sf21 cells using biotinylated peptide substrate after 1 hr by DELFIA
Chain of Tyrosine-protein kinase JAK2 (O60674 whole entry, the tested form may be a part): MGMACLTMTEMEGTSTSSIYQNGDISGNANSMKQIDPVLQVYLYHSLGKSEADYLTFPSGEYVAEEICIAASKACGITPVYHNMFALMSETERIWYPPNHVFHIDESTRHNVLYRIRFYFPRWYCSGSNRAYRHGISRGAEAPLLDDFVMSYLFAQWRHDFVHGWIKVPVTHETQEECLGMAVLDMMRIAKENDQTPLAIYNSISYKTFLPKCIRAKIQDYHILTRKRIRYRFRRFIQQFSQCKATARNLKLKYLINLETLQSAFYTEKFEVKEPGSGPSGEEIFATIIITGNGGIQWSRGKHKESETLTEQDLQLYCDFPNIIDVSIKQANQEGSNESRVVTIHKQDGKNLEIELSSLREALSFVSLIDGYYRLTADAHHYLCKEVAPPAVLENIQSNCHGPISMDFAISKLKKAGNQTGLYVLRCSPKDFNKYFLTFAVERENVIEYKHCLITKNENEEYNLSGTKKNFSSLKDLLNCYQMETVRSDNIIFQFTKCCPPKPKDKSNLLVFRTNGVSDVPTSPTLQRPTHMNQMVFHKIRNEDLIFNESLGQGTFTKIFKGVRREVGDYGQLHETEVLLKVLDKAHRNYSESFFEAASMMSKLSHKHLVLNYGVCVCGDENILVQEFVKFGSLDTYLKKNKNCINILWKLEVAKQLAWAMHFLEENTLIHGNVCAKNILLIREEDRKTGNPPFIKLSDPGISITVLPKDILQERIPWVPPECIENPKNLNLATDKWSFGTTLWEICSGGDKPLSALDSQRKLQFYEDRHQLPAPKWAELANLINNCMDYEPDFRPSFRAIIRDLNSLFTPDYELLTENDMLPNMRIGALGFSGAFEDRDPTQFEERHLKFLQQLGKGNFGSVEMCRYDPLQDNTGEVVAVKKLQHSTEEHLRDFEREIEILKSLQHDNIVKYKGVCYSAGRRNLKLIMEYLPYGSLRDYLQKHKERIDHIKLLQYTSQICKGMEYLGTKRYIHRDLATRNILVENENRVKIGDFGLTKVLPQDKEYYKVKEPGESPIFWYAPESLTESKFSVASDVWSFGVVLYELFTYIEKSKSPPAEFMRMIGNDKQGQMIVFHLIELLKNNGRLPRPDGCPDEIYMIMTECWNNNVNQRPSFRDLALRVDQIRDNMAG

Work on `CN(C)C(=O)/C(C#N)=C/c1ccc(Nc2cnc3[nH]cc(C(=O)C(C)(C)C)c3n2)cc1` yielded a T1/2 [1] of 9 h.
`C=C(C)C(=O)Nc1cccc(-c2ncnc3[nH]cc(C(=O)OCC)c23)c1` showed an IC50 [2] of 70 nM, an IC50 (JAK3/JAK1 [3]) of 5100 nM and an IC50 (JAK3/JAK1 [4]) of 280 nM. For the same compound, the half-life [5] was 0.3 h.
Work on `c1nc(-c2cn(CC3CO3)nn2)c2cc[nH]c2n1` (centres undefined) yielded a Ratio IC50 (Homo sapiens [6]) of 160, a Ratio IC50 (Homo sapiens [7]) of 70 and a Ratio IC50 (Homo sapiens [8]) of 70.
In the case of `C=CC(=O)Nc1ccc2ncn(-c3cncc(NC(C)(C)C)n3)c2c1`, the IC50 [9] is reported as 40 nM.
